Data reported in patent publication US11198687B2, “Heteroaryl allosteric modulators of nicotinic acetylcholine receptors” (Merck Sharp & Dohme Corp., priority 2017, dated 2021).
Where two headings read alike, the source gives them in different places.

Molecular target: human α7 nAChR (Homo sapiens, UniProt P36544)
Assay: Automated patch-clamp electrophysiology functional assay (Assay A)
Type: cell-based
Conditions: IonFlux HT whole-cell population patch, HEK cell line stably expressing human RIC-3 and human α7, 40 μM acetylcholine
Description: The α7 nAChR positive allosteric modulator (PAM) activity of the present compounds may be tested using assays known in the art. […] The assay was performed using the IonFlux HT in a whole-cell, population patch configuration. See Golden et al. Assay Drug Dev. Technol. (2011) 9:608-619. The compounds were assessed for their ability to modulate the function of the human α7 nAChR stably expressed in a HEK cell line both in the presence, and in the absence of the natural α7 agonist acetylcholine. By performing a series of such measurements at different concentrations, the effective concentration of the α7 nAChR PAMs (EC50) was determined. See Spencer et al. Assay Drug Dev. Technol. (2012) 10:313-324.
Direct activation of α7 (agonism), and potentiation of acetylcholine-evoked α7 currents was determined as follows:
Automated Patch-Clamp Electrophysiology Functional Assay (Assay A)
Automated patch-clamp electrophysiology was performed using the IonFlux HT (Fluxion Biosciences Inc., San Francisco, Calif.) in the whole-cell, population patch configuration. Test compounds were assessed for their ability to modulate the function of the α7 nicotinic acetylcholine receptor both in the presence, and in the absence of the natural α7 agonist acetylcholine. A HEK cell line stably expressing both human RIC-3 and human α7 (PrecisION hnAChR α7/RIC-3, Eurofins Pharma, St. Charles, Mo.) was cultured in 175 cm^2 triple-layer tissue culture flasks to no more than 90% confluency in DMEM/F-12 growth media supplemented with 10% heat-inactivated fetal bovine serum, 1% non-essential amino acids, 0.625 μg/mL Puromycin, and 400 μg/mL Geneticin. Immediately prior to assay, cells were detached by first aspirating growth media, rinsing with Dulbecco's phosphate buffered saline, and then adding 10 mL of Accutase (Innovative Cell Technologies, San Diego, Calif.) to the flask and then incubating at 37° C. for 5 minutes. Detached cells were then recovered by the addition of 40 mL of CHO-serum-free media supplemented with 25 mM HEPES, and rocked gently in a 50 mL conical tube for 20 minutes prior to patch-clamp assay. […] The cell suspension was added to the cell inlet wells on an IonFlux HT population patch plate which had previously been rinsed and primed with deionized H2O. Test compounds were serially diluted in DMSO and then resuspended to the final test concentration in external recording solution, with, or without 40 μM acetylcholine added to the external recording solution; test compounds were then transferred to the lonFlux HT population patch plate. Internal recording solution (110 mM TrisPO4, 28 mM TrisBase, 0.1 mM CaCl2, 2 mM MgCl2, 11 mM EGTA, 4 mM MgATP) was added to the internal recording solution inlet wells on the IonFlux HT patch plate previously loaded with cells and test compounds, and the plate loaded into the IonFlux HT instrument. A protocol was executed on the IonFlux HT to trap the cells, break into the cells, and establish the whole-cell recording configuration; cells were voltage-clamped at a holding potential of −60 mV for the duration of the experiment, all experiments were conducted at room temperature, and the IonFlux HT injection pressure was 8 psi for solution applications. Upon establishing the whole-cell configuration, external recording solution was perfused into the recording chambers for 120 seconds and then 40 μM acetylcholine was applied for 1 second and immediately washed off with external recording solution for 60 seconds. The 40 μM acetylcholine-evoked α7 current served as the current response to which subsequent test compound effects, in the presence, or in the absence of 40 μM acetylcholine would be quantified relative to. Next, test compounds were evaluated at multiple concentrations for their ability to induce, or modulate α7 current responses; three concentrations of test compound were evaluated in ascending dose fashion per recording.

Chain of human α7 nAChR (P36544 23-502): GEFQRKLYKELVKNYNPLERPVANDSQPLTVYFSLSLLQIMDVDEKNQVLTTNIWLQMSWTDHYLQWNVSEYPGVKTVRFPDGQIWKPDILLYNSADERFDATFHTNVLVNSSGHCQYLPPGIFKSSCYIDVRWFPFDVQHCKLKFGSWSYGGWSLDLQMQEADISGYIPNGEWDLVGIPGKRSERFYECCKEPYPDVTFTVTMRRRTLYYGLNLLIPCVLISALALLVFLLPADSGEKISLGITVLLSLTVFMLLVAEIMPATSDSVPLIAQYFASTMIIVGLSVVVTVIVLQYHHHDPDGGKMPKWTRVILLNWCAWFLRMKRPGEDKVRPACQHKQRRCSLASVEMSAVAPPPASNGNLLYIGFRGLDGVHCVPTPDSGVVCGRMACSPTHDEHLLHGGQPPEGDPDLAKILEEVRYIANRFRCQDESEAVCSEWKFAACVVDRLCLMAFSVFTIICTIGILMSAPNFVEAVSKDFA

Structure (SMILES) | EC50 (read-out: α7 nAChR EC50) [nM] | EC50 (read-out: α7 nAChR Potency) [nM]
CC(C)c1noc([C@H]2[C@H](c3ncc(S(N)(=O)=O)s3)C2(C)C)n1 (racemic) [Example D5, 2-{trans-2,2-Dimethyl-3-[3-(propan-2-yl)-1,2,4-oxadiazol-5-yl]cyclopropyl}-1,3-thiazole-5-sulfonamide] | 4200 | 500 to 5000
CC1(C)[C@@H](c2ccc(S(N)(=O)=O)cn2)[C@@H]1c1nc(-c2cccc(C(F)(F)F)c2)no1 [Example F6, 6-[(1S,3S)-2,2-Dimethyl-3-{3-[3-(trifluoromethyl)phenyl]-1,2,4-oxadiazol-5-yl}cyclopropyl]pyridine-3-sulfonamide] | 2700 | 500 to 5000
CC1(C)[C@H](c2ccc(S(N)(=O)=O)nc2)[C@H]1c1nc(CC2CC2)no1 [Example A13, 5-{(1R,3R)-3-[3-(Cyclopropylmethyl)-1,2,4-oxadiazol-5-yl]-2,2-dimethylcyclopropyl}pyridine-2-sulfonamide] |  | 500 to 5000
CC1(C)[C@H](c2ccc(S(N)(=O)=O)nc2)[C@H]1c1nc(-c2cccc(F)c2)no1 [Example A7, 5-{(1R,3R)-3-[3-(3-Fluorophenyl)-1,2,4-oxadiazol-5-yl]-2,2-dimethylcyclopropyl}pyridine-2-sulfonamide] | 650 | 500 to 5000
CC1(C)[C@@H](c2ccc(S(N)(=O)=O)nc2)[C@@H]1c1cc(C2CCCC2)no1 (relative stereo) [Example 12, 5-[trans-3-(3-Cyclopentylisoxazol-5-yl)-2,2-dimethylcyclopropyl]pyridine-2-sulfonamide] | 1100 | 500 to 5000
CC1(C)[C@H](c2ccc(S(N)(=O)=O)nc2)[C@H]1c1nc(-c2cccc(C(F)(F)F)c2)no1 [Example A10, 5-[(1R,3R)-2,2-Dimethyl-3-{3-[3-(trifluoromethyl)phenyl]-1,2,4-oxadiazol-5-yl}cyclopropyl]pyridine-2-sulfonamide] |  | 500 to 5000
CC1(C)[C@@H](c2ccc(S(N)(=O)=O)nc2)[C@@H]1c1nc(C2CCCC2)no1 [Example B7, 5-[(1S,3S)-3-(3-Cyclopentyl-1,2,4-oxadiazol-5-yl)-2,2-dimethylcyclopropyl]pyridine-2-sulfonamide] | 370 | 100 to 500
CC1(C)[C@H](c2ccc(S(N)(=O)=O)nc2)[C@H]1c1ncc(C2CCCC2)s1 [Example 9, 5-[(1R,3R)-3-(5-Cyclopentyl-1,3-thiazol-2-yl)-2,2-dimethylcyclopropyl]pyridine-2-sulfonamide] | 720 | 500 to 5000
CC1(C)[C@@H](c2ccc(S(N)(=O)=O)nc2)[C@@H]1c1nc(C2CCCCC2)no1 [Example B6, 5-[(1S,3S)-3-(3-Cyclohexyl-1,2,4-oxadiazol-5-yl)-2,2-dimethylcyclopropyl]pyridine-2-sulfonamide] |  | 100 to 500
CC1(C)[C@@H](c2nc3ccccc3o2)[C@@H]1c1ncc(S(N)(=O)=O)s1 (racemic) [Example D1, 2-[trans-3-(1,3-Benzoxazol-2-yl)-2,2-dimethylcyclopropyl]-1,3-thiazole-5-sulfonamide] | 2000 | 500 to 5000
CC(C)(C)c1noc([C@H]2[C@H](c3ccc(S(N)(=O)=O)cn3)C2(C)C)n1 [Example F9, 6-[(1S,3S)-3-(3-tert-Butyl-1,2,4-oxadiazol-5-yl)-2,2-dimethylcyclopropyl]pyridine-3-sulfonamide] |  | 500 to 5000
CC1(C)[C@@H](c2ccc(S(N)(=O)=O)nc2)[C@@H]1c1nc(C2CC(F)(F)C2)no1 [Example B8, 5-{(1S,3S)-3-[3-(3,3-Difluorocyclobutyl)-1,2,4-oxadiazol-5-yl]-2,2-dimethylcyclopropyl}pyridine-2-sulfonamide] |  | 500 to 5000
CC1(C)[C@@H](c2ccc(S(N)(=O)=O)cn2)[C@@H]1c1nc(-c2ccccc2)no1 (racemic) [Example G2, 6-[trans-2,2-Dimethyl-3-(3-phenyl-1,2,4-oxadiazol-5-yl)cyclopropyl]pyridine-3-sulfonamide] | 970 | 500 to 5000
NS(=O)(=O)c1ccc([C@@H]2C[C@H]2c2nc(-c3ccccc3)no2)nc1 (racemic) [Example G6, 6-[trans-2-(3-Phenyl-1,2,4-oxadiazol-5-yl)cyclopropyl]pyridine-3-sulfonamide] | 1300 | 500 to 5000
CC1(C)[C@H](c2ccc(S(N)(=O)=O)nc2)[C@H]1c1nc(C2CCCC2)no1 [Example A3, 5-[(1R,3R)-3-(3-Cyclopentyl-1,2,4-oxadiazol-5-yl)-2,2-dimethylcyclopropyl]pyridine-2-sulfonamide] | 2900 | 500 to 5000
COc1ccc(Cl)cc1-c1noc([C@H]2[C@H](c3ccc(S(N)(=O)=O)cn3)C2(C)C)n1 [Example F4, 6-{(1S,3S)-3-[3-(5-Chloro-2-methoxyphenyl)-1,2,4-oxadiazol-5-yl]-2,2-dimethylcyclopropyl}pyridine-3-sulfonamide] |  | 500 to 5000
CC1(C)[C@@H](c2ccc(S(N)(=O)=O)cn2)[C@@H]1c1nc(C2CCCCC2)no1 [Example 10, 6-[(1S,3S)-3-(3-Cyclohexyl-1,2,4-oxadiazol-5-yl)-2,2-dimethylcyclopropyl]pyridine-3-sulfonamide] | 480 | 100 to 500
NS(=O)(=O)c1ccc([C@@H]2C[C@H]2c2nc(C3CCCC3)no2)cn1 (racemic) [Example C9, 5-[trans-2-(3-Cyclopentyl-1,2,4-oxadiazol-5-yl)cyclopropyl]pyridine-2-sulfonamide] |  | 500 to 5000
CC1(C)[C@H](c2ccc(S(N)(=O)=O)nc2)[C@H]1c1nc(C2CCC2)no1 [Example A12, 5-[(1R,3R)-3-(3-Cyclobutyl-1,2,4-oxadiazol-5-yl)-2,2-dimethylcyclopropyl]pyridine-2-sulfonamide] |  | 500 to 5000
CC1(C)[C@@H](c2ccc(S(N)(=O)=O)nc2)[C@@H]1c1nc(-c2ccccc2)no1 (racemic) [Example C6, 5-[trans-2,2-Dimethyl-3-(3-phenyl-1,2,4-oxadiazol-5-yl)cyclopropyl]pyridine-2-sulfonamide] |  | 500 to 5000
CC(C)c1noc([C@H]2[C@H](c3ccc(S(N)(=O)=O)cn3)C2(C)C)n1 (racemic) [Example G3, 6-{trans-2,2-Dimethyl-3-[3-(propan-2-yl)-1,2,4-oxadiazol-5-yl]cyclopropyl}pyridine-3-sulfonamide] |  | 500 to 5000
COc1ccc(Cl)cc1-c1noc([C@H]2[C@H](c3ncc(S(N)(=O)=O)s3)C2(C)C)n1 (racemic) [Example D7, 2-{trans-3-[3-(5-Chloro-2-methoxyphenyl)-1,2,4-oxadiazol-5-yl]-2,2-dimethylcyclopropyl}-1,3-thiazole-5-sulfonamide] | 1200 | 500 to 5000
CC1(C)[C@@H](c2ccc(S(N)(=O)=O)cn2)[C@@H]1c1nc(-c2cncc(F)c2)no1 [Example F11, 6-{(1S,3S)-3-[3-(5-Fluoropyridin-3-yl)-1,2,4-oxadiazol-5-yl]-2,2-dimethylcyclopropyl}pyridine-3-sulfonamide] | 3400 | 500 to 5000
CC1(C)[C@@H](c2ccc(S(N)(=O)=O)nc2)[C@@H]1c1nc(-c2cccc(C(F)(F)F)c2)no1 [Example B5, 5-[(1S,3S)-2,2-Dimethyl-3-{3-[3-(trifluoromethyl)phenyl]-1,2,4-oxadiazol-5-yl}cyclopropyl]pyridine-2-sulfonamide] | 3000 | 500 to 5000
CC1(C)[C@@H](c2ccc(S(N)(=O)=O)nc2)[C@@H]1c1noc(C2(C(F)(F)F)CC2)n1 (racemic) [Example C11, 5-(trans-2,2-Dimethyl-3-{5-[1-(trifluoromethyl)cyclopropyl]-1,2,4-oxadiazol-3-yl}cyclopropyl)pyridine-2-sulfonamide] | 1500 | 500 to 5000
